Here are results for two substances from US20190274937A1, “MICROBIOME-SAFE COSMETIC CLEANING COMPOSITIONS” (Yun NV, priority 2016, published 2019).

One test is described as follows: Spread plating. It counts as cell-based. The settings on record: surfactants of negative control P3. The method, then: The negative control (P3) has no growth after incubation in MRS. It contains the anionic Sodium Laureth sulphate (14% final) and cocamidopropyl betaine, some of the most commonly used surfactants in present-day soaps.
A further test concerns lactobacillus. Put plainly: More detailed screening of the products for ingredients responsible for growth retardation (data not shown). It counts as cell-based. The text has this:
A more detailed screening of the products (data not shown) led to a few common ingredients found in most shower cosmetics that can be held responsible for the growth retardation in FIG. 1.0. […] As strong and fast working preservatives; phenoxyethanol, parabens, bronopol, sulphites/sulphates, benzylalcohol and others were identified. Most allergens in perfume can also be identified as being harmful for bacteria.

Take Sodium laureth sulphate: in the test “Spread plating”, the bactericidal effect entry was “bactericidal effect”. In addition, the “effect on bacteria / the present lactobacillus” value in the test on lactobacillus is recorded as “very strong bactericidal effect”.
For the substance cocamidopropyl betaine, the bactericidal effect entry in “Spread plating” is listed as “bactericidal effect”. Moreover, the “effect on bacteria / the present lactobacillus” value in the test on lactobacillus is “big negative influence”.
